In patent US9056108B2, “Method of treating atrial fibrillation” (Gilead Sciences, Inc., priority 2009, dated 2015):

Key:
[1] = system: female rabbit isolated heart; test: Monophasic action potential duration (MAPD90) in female rabbit isolated heart; conditions: ranolazine 0.1-100 μM
Description: Each rabbit was sedated using intramuscular injections of 6 mg/kg xylazine and 40 mg/kg ketamine and then anesthetized using a “cocktail” of ketamine (15 mg/kg)+xylazine (4 mg/kg) in 1.5 ml saline. The ketamine/xylazine cocktail was administered as an i.v. bolus via the marginal ear vein. After anesthesia was confirmed, the thorax was opened and the heart was quickly excised. The heart was placed in a modified Krebs-Henseleit (K-H) physiological saline solution at room temperature. The K-H solution contained (in mmol/L): NaCl 118, KCl 2.8, KH2PO4 1.2, CaCl2 2.5, MgSO4 0.5, pyruvate 2.0, glucose 5.5, Na2EDTA 0.57 and NaHCO3 25. […] CPP was measured (with a Biopac MP 150 pressure transducer, Goleta, Calif.) from a side port of the aortic catheter. […]
Monophasic action potential (MAP) and ECG electrodes from Harvard Apparatus Inc. (Holliston, Mass.) were used to record heart rate (in beats per minute, or bpm), left ventricular MAPs and a bipolar ECG MAP electrodes were pressure contact Ag—AgCl cells attached to a circular holder with springs to keep the electrodes in contact with the LV epicardial surface. […] To ensure that each response to drug had achieved a steady state before a drug concentration was changed, the MAP duration (from onset of depolarization to 100% repolarization) was measured using an on-screen caliper throughout each drug infusion period. […]

hNav1.5 = biological target: T1, hNav1.5 (Homo sapiens, UniProt Q14524); test: Tefluthrin-induced late sodium current in HEK293 cells expressing hNav1.5; format: cell-based; conditions: HEK293 cells expressing hNav1.5, tefluthrin 10 μM; read-out: Concentration causing a half-maximal inhibition of late Na+
T1 construct: expressed in transfected cells; host or cells: HEK293
Description: The effect of dronedarone on late INa has not been reported. Therefore we determined the effect of dronedarone on late INa induced by incubation of HEK293 cells expressing the human heart sodium channel gene Nav1.5 with the late INa enhancer tefluthrin. […] Thus, the combination of dronedarone and ranolazine may be anticipated to reduce late INa. A reduction of late INa in the heart has been associated with a reduction of atrial arrhythmias in patients and in animal models of atrial fibrillation.

[2] = in vivo; cited from earlier work

T1 sequence (Q14524 whole entry): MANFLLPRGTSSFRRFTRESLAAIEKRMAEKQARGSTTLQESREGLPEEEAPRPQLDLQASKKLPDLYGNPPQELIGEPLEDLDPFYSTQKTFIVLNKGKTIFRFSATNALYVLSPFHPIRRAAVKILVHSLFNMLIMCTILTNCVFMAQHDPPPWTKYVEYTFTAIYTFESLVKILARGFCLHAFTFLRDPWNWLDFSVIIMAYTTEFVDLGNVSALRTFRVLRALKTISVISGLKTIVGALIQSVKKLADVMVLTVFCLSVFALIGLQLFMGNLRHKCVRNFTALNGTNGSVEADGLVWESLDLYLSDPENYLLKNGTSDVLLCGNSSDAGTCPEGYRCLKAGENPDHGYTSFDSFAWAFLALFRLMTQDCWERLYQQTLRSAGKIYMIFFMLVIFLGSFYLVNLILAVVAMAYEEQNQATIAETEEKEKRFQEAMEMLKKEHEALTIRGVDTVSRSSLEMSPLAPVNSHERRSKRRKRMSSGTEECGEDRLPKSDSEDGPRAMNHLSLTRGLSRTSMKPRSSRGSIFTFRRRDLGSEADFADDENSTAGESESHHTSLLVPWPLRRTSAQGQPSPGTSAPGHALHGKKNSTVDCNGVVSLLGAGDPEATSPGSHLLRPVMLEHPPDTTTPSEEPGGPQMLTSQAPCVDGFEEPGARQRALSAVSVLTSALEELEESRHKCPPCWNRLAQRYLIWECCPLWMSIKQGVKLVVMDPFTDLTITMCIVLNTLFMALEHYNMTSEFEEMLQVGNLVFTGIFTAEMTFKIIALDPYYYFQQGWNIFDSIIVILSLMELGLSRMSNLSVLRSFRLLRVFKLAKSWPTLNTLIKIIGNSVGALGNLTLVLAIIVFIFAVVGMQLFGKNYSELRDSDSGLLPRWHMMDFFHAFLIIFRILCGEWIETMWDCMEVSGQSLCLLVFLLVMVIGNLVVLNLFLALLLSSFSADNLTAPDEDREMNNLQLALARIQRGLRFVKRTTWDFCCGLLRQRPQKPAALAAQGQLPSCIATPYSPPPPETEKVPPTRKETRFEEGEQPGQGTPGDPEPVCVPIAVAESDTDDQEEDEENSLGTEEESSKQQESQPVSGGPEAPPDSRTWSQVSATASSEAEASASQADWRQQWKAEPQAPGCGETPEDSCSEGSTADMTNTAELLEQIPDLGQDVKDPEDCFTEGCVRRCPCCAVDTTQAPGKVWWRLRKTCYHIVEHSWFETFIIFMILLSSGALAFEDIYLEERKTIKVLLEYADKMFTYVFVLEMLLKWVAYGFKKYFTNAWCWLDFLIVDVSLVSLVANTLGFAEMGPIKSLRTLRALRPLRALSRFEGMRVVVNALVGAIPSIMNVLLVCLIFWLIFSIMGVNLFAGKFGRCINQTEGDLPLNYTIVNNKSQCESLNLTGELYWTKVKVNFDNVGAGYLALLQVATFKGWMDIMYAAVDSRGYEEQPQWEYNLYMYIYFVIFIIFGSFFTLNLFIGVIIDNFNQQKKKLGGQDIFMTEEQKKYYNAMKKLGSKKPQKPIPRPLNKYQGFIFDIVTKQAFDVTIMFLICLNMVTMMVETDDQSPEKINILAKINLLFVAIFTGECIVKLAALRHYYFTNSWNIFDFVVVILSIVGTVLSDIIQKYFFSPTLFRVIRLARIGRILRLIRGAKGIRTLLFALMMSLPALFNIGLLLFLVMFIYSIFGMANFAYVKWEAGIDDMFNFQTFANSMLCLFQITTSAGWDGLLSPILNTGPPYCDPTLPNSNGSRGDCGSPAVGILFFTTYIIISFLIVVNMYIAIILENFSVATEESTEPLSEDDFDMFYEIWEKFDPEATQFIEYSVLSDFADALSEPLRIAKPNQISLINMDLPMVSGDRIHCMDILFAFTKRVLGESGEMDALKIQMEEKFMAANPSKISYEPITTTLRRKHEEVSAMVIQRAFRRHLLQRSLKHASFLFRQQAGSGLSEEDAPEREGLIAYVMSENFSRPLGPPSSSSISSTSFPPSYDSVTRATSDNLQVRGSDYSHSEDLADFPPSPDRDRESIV

SMILES | Increase in MAPD90 [1] [%] | MAPD90 ([1]; from 177±10) [ms] | IC50 (hNav1.5) [µM] | Half-life of elimination [2]
COc1ccccc1OCC(O)CN1CCN(CC(=O)Nc2c(C)cccc2C)CC1 (racemic) [Ranolazine, (±)-N-(2,6-dimethylphenyl)-4-[2-hydroxy-3-(2-methoxyphenoxy)-propyl]-1-piperazineacetamide] | 22±6 | 215 ± 6 |  | 
CCCCc1oc2ccc(NS(C)(=O)=O)cc2c1C(=O)c1ccc(OCCCN(CCCC)CCCC)cc1 [Dronedarone, N-(2-Butyl-3-(p-(3-(dibutylamino)propoxy)benzoyl)-5-benzofuranyl)methanesulfonamide] |  |  | 4 | about 24 hours
